The values that follow come from PubChem BioAssay AID1996.

≈ marks a conversion by molar mass, not a printed value.

For the data set the following is noted: buffer; pH 7.4; 200.0 µM.
Regarding `O=c1cc(C(F)(F)F)nc(SCc2cccc3ccccc23)[nH]1`, the kinetic solubility turned out to be 7.5 µg/mL (≈ 22.3 µM).
Next, `COc1ccc(OCC(O)CNC(=O)c2cccs2)cc1` (configuration not stated): 36.9 µg/mL (≈ 120 µM).
Next, `Cc1occc1C(=O)Nc1ccc(S(N)(=O)=O)cc1`: more than 42 µg/mL; `Clc1cccc(C2NCc3ccccc3-n3cccc32)c1` (configuration not stated): 3.5 µg/mL (≈ 11.9 µM); `OCCNC(=S)Nc1ccc2c(c1)OCCO2`: 37 µg/mL (≈ 145 µM).
Next, `Brc1ccc2[nH]c3c(c2c1)CCC3`: 3.1 µg/mL (≈ 13.1 µM); `Cc1c(C(=O)Nc2nccs2)oc2ccc(F)cc12`: 3.1 µg/mL (≈ 11.2 µM); `OC(CN1CCN(Cc2ccccc2)CC1)c1ccccc1` (configuration not stated): more than 44.5 µg/mL.
Take `O=C(Nc1cccc(F)c1)N1CCN(C(=O)c2ccco2)CC1`: the kinetic solubility was more than 47.6 µg/mL.
Next, `Cc1cccc(C)c1NC(=O)c1c(O)c2ccccc2[nH]c1=O`: 0.5 µg/mL (≈ 1.62 µM); `C[N+](C)(C)C[C@H](O)CC(=O)O.[Cl-]`: more than 29.6 µg/mL.
Regarding `O=C(COc1ccccc1)N1CCCC1`, the kinetic solubility turned out to be 26.7 µg/mL (≈ 130 µM).
The result for `O=C(COC(=O)c1cc2ccccc2o1)NCc1ccco1` reads 17 µg/mL (≈ 56.8 µM); that for `O=C(Oc1ccc2c(c1)O/C(=C\c1ccncc1)C2=O)c1cccs1`, 2.2 µg/mL (≈ 6.3 µM); that for `O=C(Cc1ccc(-c2ccccc2)cc1)Nc1ccccn1`, 12 µg/mL (≈ 41.6 µM).
The result for `O=C(NCc1ccc(F)cc1)C1CC(=O)N(C2CCCC2)C1` (configuration not stated) reads more than 45.7 µg/mL; that for `N#Cc1ccccc1COC(=O)c1ccc2c(c1)OCO2`, 5.2 µg/mL (≈ 18.5 µM); that for `O=C(Nc1nc(-c2cccnc2)cs1)c1ccccc1[N+](=O)[O-]`, 0.7 µg/mL (≈ 2.15 µM).
In the case of `COc1ccc(C(=O)/C=C/Nc2cc(C)ccn2)cc1`, the kinetic solubility amounted to 5.8 µg/mL (≈ 21.6 µM).
The result for `CCOc1ccccc1NC(=O)c1csc(C)c1C` reads 16.5 µg/mL (≈ 59.9 µM); that for `O=C(CNC(=O)c1ccc(Br)o1)NC1CCCCC1`, more than 49.4 µg/mL; that for `CC(=O)c1ccc(NC(=O)C2CCCO2)cc1` (configuration not stated), more than 35 µg/mL.
Next, `CN(C)Cc1nc2ccccc2c(=O)n1CC#N`: more than 36.3 µg/mL; `CCOc1ccc(CN2C(=O)c3ccccc3C2=O)cc1C(=O)O`: more than 48.8 µg/mL.
Next, `CC1(C)C2CC=C(/C=N/NC(=O)C(N)=O)C1C2` (configuration not stated): more than 35.3 µg/mL.
`CC(C)(C)OC(=O)N1CCCN(C(=O)Nc2ccccc2)CC1` registered a solubility (kinetic) of 46.3 µg/mL (≈ 145 µM).
The result for `O=C(CCl)c1ccc2[nH]c(=O)oc2c1` reads more than 31.7 µg/mL; that for `COc1cc(C(=O)N2CCC(C(N)=O)CC2)ccc1OCc1c(C)noc1C`, more than 58.1 µg/mL; that for `CC(=O)Nc1sc(C)c(C)c1C(=O)OCC(=O)Nc1cccc(C)c1`, 1.1 µg/mL (≈ 3.05 µM).
Next, `O=C(COc1ccc(Nc2ccccc2)cc1)Nc1ccncc1`: 9.2 µg/mL (≈ 28.8 µM).
Next, `CC(C)NCC#CCOc1ccc(Cl)cc1.O=C(O)C(=O)O`: 42.6 µg/mL; `COc1ccc(C2c3c(noc3C)CC(C)(O)C2C(C)=O)cc1` (configuration not stated): more than 47.3 µg/mL; `O=C(O)/C=C/c1ccc(Oc2ncccn2)cc1`: more than 36.3 µg/mL.
In turn, `CC(=O)c1cccc(NC(=O)CC2CCCC2)c1` returned a solubility (kinetic) of more than 36.8 µg/mL.
Next, `CC1CCCCN1C(=O)CCn1c(=S)oc2ccccc21` (configuration not stated): 43.9 µg/mL (≈ 144 µM); `FC(F)(F)Sc1ccc(NC(=S)NCc2ccccc2)cc1`: less than 0.4 µg/mL.
With `CCCCCC(O)(CCN1CCCCC1)c1ccccc1.Cl` (configuration not stated), the solubility (kinetic) was more than 48.9 µg/mL.
The result for `COc1cc2c(cc1OC)C(NC(=O)c1ccc(C)cc1)CC2=O` (configuration not stated) reads 4.6 µg/mL (≈ 14.1 µM); that for `O=C(COC(=O)c1ccc(O)cc1)NC1CCCC1`, more than 39.5 µg/mL.
Next, `O=C(C1CCCCC1)N1CCc2[nH]c3ccc(F)cc3c2C1`: 0.4 µg/mL (≈ 1.33 µM).
The result for `COc1ccc(OS(=O)(=O)c2c(C)noc2C)cc1` reads 29.3 µg/mL (≈ 103 µM); that for `O=c1[nH]cc(NCCc2ccccc2)c(=O)[nH]1`, more than 34.7 µg/mL; that for `CCc1ccc(C(=O)NC(C(=O)NCC2CCCO2)C(C)C)cc1` (configuration not stated), more than 49.9 µg/mL.
For the compound `COc1ccc2oc(=N)c(C(=O)Nc3ccc(C)cc3)cc2c1`, the kinetic solubility is 0.6 µg/mL (≈ 1.95 µM).
Next, `O=C(NCc1ccccc1Cl)c1ccc[nH]1`: 31.5 µg/mL (≈ 134 µM).
Take `Clc1ccc(CNc2ccc(N3CCN(Cc4ccccc4)CC3)cc2)cc1`: the kinetic solubility amounted to 1 µg/mL (≈ 2.55 µM).
The result for `Cc1cccnc1NC(=O)CCn1c(=O)oc2ccccc21` reads more than 44.6 µg/mL.
Next, `Cc1onc(-c2ccccc2)c1C(=O)N1CCCC1`: more than 38.4 µg/mL.
Next, `O=C(c1cc(F)ccc1F)C1CCCN(Cc2cccc(Cl)c2)C1` (configuration not stated): 2.1 µg/mL (≈ 6 µM); `COc1ccc(S(=O)(=O)/C(C#N)=C/Nc2cccc(F)c2)cc1`: less than 0.4 µg/mL.
On to `Cc1ccc(C(=O)N2CCC(C(=O)NC3CCCCCC3)CC2)cc1`, for which the solubility (kinetic) was 48.1 µg/mL (≈ 140 µM).
The result for `CCOC(=O)C1=C(COC(=O)/C=C/c2cccc(F)c2)NC(=O)NC1C` (configuration not stated) reads 4.6 µg/mL (≈ 12.7 µM); that for `CNC(=O)CSc1nnc(-c2cnccn2)n1C`, more than 39.6 µg/mL.
Next, `O=C(Cc1ccc(Cl)cc1)Nc1ccc(Cl)cn1`: 3.1 µg/mL (≈ 11 µM); `COCc1cc(=O)[nH]c(/N=C(\N)Nc2c(F)cccc2F)n1`: 40.6 µg/mL (≈ 131 µM).
Next, `CCN(CC)CCNC(=O)c1ccc(-n2c(C)cc3c2CCCC3=O)cc1`: 33.7 µg/mL (≈ 91.7 µM); `CCC(C)c1ccc(NC(=S)N2CCN(S(C)(=O)=O)CC2)cc1` (configuration not stated): 8.8 µg/mL (≈ 24.8 µM).
As to `O=C(COC(=O)c1cc(Br)ccc1O)NC12CC3CC(CC(C3)C1)C2`, the solubility (kinetic) was 3.1 µg/mL (≈ 7.59 µM).
On to `Cc1ccccc1C1NC(=S)NC2=C1C(=O)CC(C)(C)C2` (configuration not stated), for which the kinetic solubility stood at 39.3 µg/mL (≈ 131 µM).
In turn, `O=C(NC(=S)Nc1cccnc1)c1cccs1` registered a solubility (kinetic) of 10.4 µg/mL (≈ 39.5 µM). Against the preceding compound, the solubility kinetic is about 3.8-fold lower.
Next, `CCOC(=O)CN1C(=O)C(=O)N(Cc2c(C)cc(C)cc2C)C1=O`: 14 µg/mL (≈ 42.1 µM).
Next, `Cc1nc2sc(C(=O)c3ccccc3)c(N)c2c(C)c1C`: less than 0.3 µg/mL; `O=C(Nc1nccs1)OCc1ccccc1`: 12.8 µg/mL (≈ 54.6 µM); `Cc1cccc(CNCCc2c[nH]c3ccccc23)c1.O=C(O)C(=O)O`: more than 53.2 µg/mL.
Next, `O=[N+]([O-])c1cc(/C=N/N2CCOCC2)cs1`: more than 36.2 µg/mL.
With `CCOC(=O)N1CCN(CC(=O)Nc2ccc(F)cc2)CC1`, the solubility (kinetic) is more than 46.4 µg/mL.
The result for `Oc1ccc(Br)cc1CNc1nccs1` reads 4.4 µg/mL (≈ 15.4 µM); that for `N#CCCC(CCC#N)C1=NCCc2ccccc21`, 36.4 µg/mL (≈ 145 µM); that for `CN(C)C(=S)NC(C)(C)C`, 2.7 µg/mL (≈ 16.8 µM).
Next, `Cc1ccc(-c2c(NCCc3ccccc3)c(=O)c2=O)cc1`: less than 0.6 µg/mL.
Next, `Nc1c(N(Cc2ccccc2)C(=O)COc2ccc(F)cc2Cl)c(=O)[nH]c(=O)n1Cc1ccccc1`: 9.4 µg/mL (≈ 18.5 µM).
`Cc1ccc(-c2nc(C#N)c(NCCCn3ccnc3)o2)cc1` came in with a kinetic solubility of 0.9 µg/mL (≈ 2.93 µM).
`COc1ccccc1NC(=O)c1cc([N+](=O)[O-])ccc1N1CCOCC1` came in with a kinetic solubility of 31.2 µg/mL (≈ 87.3 µM). This solubility kinetic lies about 35-fold higher than the previous one.
Next, `Nc1ccc2ccc3cccc[n+]3c2c1.[O-][Cl+3]([O-])([O-])[O-]`: more than 44.2 µg/mL; `COc1ccc(CCN)cc1O.Cl`: more than 30.6 µg/mL.
The result for `O=C(COC(=O)C1CC1)NC(=O)NCc1ccccc1` reads more than 41.4 µg/mL; that for `COc1ccc(CCC(C)N2CCc3ccccc3C2)cc1` (configuration not stated), 39.1 µg/mL (≈ 132 µM).
The result for `COc1ccccc1N1C(=O)CC(=O)NC1=O` reads more than 35.1 µg/mL; that for `O=C(Nc1ccc(N2CCN(c3ccccc3)CC2)c(F)c1)C1CC1`, less than 0.2 µg/mL.
`CN1CCCCCC1=Nc1ccc([N+](=O)[O-])cc1.Cl` showed a solubility (kinetic) of more than 42.6 µg/mL.
Next, `COc1ccc(C(=O)Nc2cc(C)on2)cc1OC`: 26.9 µg/mL (≈ 103 µM); `Cn1nccc1NC(=O)Nc1ccc(Cl)cc1`: more than 37.6 µg/mL; `O=C(NC1CCCCC1)C1CC(=O)N(c2ccccc2)C1` (configuration not stated): 38.5 µg/mL (≈ 134 µM).
Next, `O=C(COC(=O)c1cccs1)NCCc1ccc(F)cc1`: 42.2 µg/mL (≈ 137 µM); `O=C(O)C1CCN(C(=O)CSc2nnc(-c3ccccc3)o2)CC1`: more than 52.1 µg/mL.
Next, `Cc1ccccc1C(=O)O/N=C(\N)Cc1cccs1`: more than 41.2 µg/mL; `COC(=O)c1cc(C(=O)OCC(=O)Nc2ccc(N3CCOCC3)cc2)cc([N+](=O)[O-])c1`: 11.8 µg/mL (≈ 26.6 µM); `O=C(COC(=O)Cc1ccsc1)Nc1cccc(F)c1`: more than 44 µg/mL.
`CC(=O)c1cccc(NC(=O)c2cc(=O)c3ccccc3o2)c1`: the kinetic solubility is less than 0.7 µg/mL.
Next, `CCc1ccc(C(C)NC(=O)c2ccncc2)cc1` (configuration not stated): more than 38.1 µg/mL.
The result for `O=[N+]([O-])c1ccc(NCc2ccc(Cl)cc2)nc1` reads 1.2 µg/mL (≈ 4.55 µM); that for `O=C(CN1CCOCC1)Nc1ccc(Cl)cn1`, more than 38.4 µg/mL; that for `O=C(Nc1nccs1)c1cn2ccccc2n1`, 36.2 µg/mL (≈ 148 µM).
The result for `CC(=O)Nc1ccc(NC(=O)CC2CCCC2)cc1` reads more than 39.1 µg/mL; that for `Cc1cccc2nc3c(nc12)CCCC3`, 6.4 µg/mL (≈ 32.3 µM).
In the case of `Cc1ccc(N)cc1S(=O)(=O)N(C)C`, the solubility (kinetic) was more than 32.1 µg/mL.
Next, `CC(C)CN(CC(C)C)C(=O)Nc1ccc(F)cc1F`: 33.2 µg/mL (≈ 117 µM); `Cc1cc(C)c(C#N)c(SCc2ccc([N+](=O)[O-])cc2)n1`: less than 0.2 µg/mL; `CC(C)C(=O)Nc1c(-c2ccccc2)c(=O)c2ccccc2n1C`: 9.2 µg/mL (≈ 28.7 µM).
The result for `COc1ccccc1CN(C)C(=O)COC(=O)c1cc(C)oc1C` reads more than 49.7 µg/mL; that for `Cn1c(SCC(=O)Nc2ccccc2[N+](=O)[O-])nnc1C(F)(F)F`, more than 54.2 µg/mL.
The result for `COc1ccc2nc(-c3ccccc3)cc(C(=O)N3CCC3)c2c1` reads more than 47.8 µg/mL; that for `O=C(Nc1cccnc1Cl)c1ccc(=O)oc1`, more than 37.6 µg/mL.
Regarding `S=c1nccc(-c2ccc3c(c2)CCO3)[nH]1`, the solubility (kinetic) came to 14.8 µg/mL (≈ 64.3 µM).
Next, `CCOc1ccc(NC(=O)c2ccccc2SC)cc1`: 2.4 µg/mL (≈ 8.35 µM); `O=C(CNC(=O)c1ccc(Br)cc1)NCc1cccnc1`: 49.3 µg/mL (≈ 142 µM).
The result for `CC(C)(Oc1ccc(Cl)cc1)C(=O)N1CCC(C(N)=O)CC1` reads 48.7 µg/mL (≈ 150 µM).

As usually defined, the kinetic solubility is the concentration staying in solution when a stock, usually in DMSO, is diluted into the medium.
